{"source": "patent US20090156569A1", "about": "“ORAL CONTRACEPTIVE SPRAY” (N.V. Organon, priority 2007, published 2009)", "key": {"[1]": {"assay": "Solubility of the active ingredients in liquid solutions (Liquids 1-5)", "assay_type": "physicochemical", "conditions": "for solubility: aqueous with cosolvent or surfactant or cyclodextrin", "method": "Solutions were prepared essentially according to the procedure as described in Example 1. The solubility of each one of the active ingredients desogestrel, 3-β-hydroxydesogestrel, 3-keto desogestrel and ethinyl estradiol in these solutions was tested."}, "[2]": {"conditions": "exposure of etonogestrel after oral ingestion as its prodrug desogestrel; cited from earlier work"}, "[3]": {"parameters": "species or system human", "conditions": "in vivo", "method": "Sixteen healthy female subjects were treated with 0.1 ml of the oral spray as described in Example 1 or with Marvelon® tablets (150 μg desogestrel, 30 μg ethinyl estradiol) in a cross over design. The spray was administered sublingually. Marvelon® was ingested. Serum concentration versus time profiles were obtained for etonogestrel and plasma concentration versus time profiles were obtained for ethinyl estradiol. FIGS. 2, 3, 4 and 5 show the average values of the serum/plasma concentrations versus time profiles.\nThis leads to the conclusion that a lower dose of either etonogestrel, or ethinyl estradiol, or both is possible for oral mucosal administration."}, "[4]": {"assay": "Cross-over pharmacokinetic study: sublingual oral spray (75 μg etonogestrel) versus ingested Cerazette tablet", "assay_type": "in vivo, human", "conditions": "oral mucosal administration of etonogestrel; FIGS. 6 and 7", "method": "Sixteen healthy female subjects were treated with 0.1 ml of oral spray comprising the liquid as depicted in table 6 to administer 75 μg etonogestrel, or with Cerazette® tablets (75 μg desogestrel) in a cross over design. The spray has been administered sublingually. Cerazette® has been ingested. Serum concentration versus time profiles were obtained for etonogestrel.\nThis leads to the conclusion that a lower dose of either etonogestrel is possible for oral mucosal administration to achieve a similar pharmacological effect."}, "[5]": {"conditions": "Liquid 1: water 25, ethanol 20, glycerol 25, propylene glycol 25, polysorbate 80 5 % v/v, read-out: Solubility in Liquid 1"}, "[6]": {"conditions": "Liquid 2: water 25, ethanol 25, glycerol 20, propylene glycol 25, polysorbate 80 5 % v/v, read-out: Solubility in Liquid 2"}, "[7]": {"conditions": "Liquid 3: water 25, ethanol 30, glycerol 15, propylene glycol 25, polysorbate 80 5 % v/v, read-out: Solubility in Liquid 3"}, "[8]": {"conditions": "Liquid 4: water 25, ethanol 25, glycerol 25, propylene glycol 25, polysorbate 80 0 % v/v, read-out: Solubility in Liquid 4"}, "[9]": {"conditions": "Liquid 5: water 30, ethanol 30, glycerol 25, propylene glycol 15, polysorbate 80 0 % v/v, read-out: Solubility in Liquid 5"}}, "note": "Where two headings read alike, the source gives them in different places.", "data": [{"smiles": "C#C[C@]1(O)CC[C@H]2[C@@H]3CCC4=CC(=O)CC[C@@H]4[C@H]3C(=C)C[C@@]21CC", "note": "[Etonogestrel, 13-ethyl-11methylene-17β-hydroxy-18,19-dinor-17α-pregnen-3-one]", "values": [{"measurement": "solubility", "setting": "[1]; [5]", "value": 5500, "unit": "µg/mL"}, {"measurement": "solubility", "setting": "[1]; [6]", "value": 5800, "unit": "µg/mL"}, {"measurement": "solubility", "setting": "[1]; [7]", "value": 7300, "unit": "µg/mL"}, {"measurement": "solubility", "setting": "[1]; [8]", "value": 4200, "unit": "µg/mL"}, {"measurement": "solubility", "setting": "[1]; [9]", "value": 3400, "unit": "µg/mL"}, {"measurement": "oral bioavailability", "setting": "[2]", "value": "about 80%"}, {"measurement": "levels of etonogestrel (in serum) compared to oral ingestion of equivalent amounts using a tablet", "setting": "[3]", "value": "much higher levels"}, {"measurement": "levels of etonogestrel (in serum) compared to oral ingestion of an equivalent amount of desogestrel using a tablet", "setting": "[4]", "value": "much higher levels"}]}, {"smiles": "C#C[C@]1(O)CC[C@H]2[C@@H]3CCC4=C[C@@H](O)CC[C@@H]4[C@H]3C(=C)C[C@@]21CC", "note": "[3-β-Hydroxy-desogestrel]", "values": [{"measurement": "Solubility in Liquid 1", "setting": "[1]", "value": "≧8.8 mg/mL"}, {"measurement": "Solubility in Liquid 2", "setting": "[1]", "value": "≧7.0 mg/mL"}, {"measurement": "Solubility in Liquid 3", "setting": "[1]", "value": "≧6.1 mg/mL"}, {"measurement": "Solubility in Liquid 4", "setting": "[1]", "value": "≧6.9 mg/mL"}, {"measurement": "Solubility in Liquid 5", "setting": "[1]", "value": "≧8.7 mg/mL"}]}, {"smiles": "C#C[C@]1(O)CC[C@H]2[C@@H]3CCc4cc(O)ccc4[C@H]3CC[C@@]21C", "note": "[Ethinyl Estradiol]", "values": [{"measurement": "solubility", "setting": "[1]; [5]", "value": "≥ 10900", "unit": "µg/mL"}, {"measurement": "solubility", "setting": "[1]; [6]", "value": "≥ 10800", "unit": "µg/mL"}, {"measurement": "solubility", "setting": "[1]; [7]", "value": "≥ 14100", "unit": "µg/mL"}, {"measurement": "solubility", "setting": "[1]; [8]", "value": 11200, "unit": "µg/mL"}, {"measurement": "solubility", "setting": "[1]; [9]", "value": 12400, "unit": "µg/mL"}, {"measurement": "levels of ethinyl estradiol (in plasma) compared to oral ingestion of equivalent amounts using a tablet", "setting": "[3]", "value": "much higher levels"}]}, {"smiles": "C#C[C@]1(O)CC[C@H]2[C@@H]3CCC4=CCCC[C@@H]4[C@H]3C(=C)C[C@@]21CC", "note": "[Desogestrel]", "values": [{"measurement": "solubility", "setting": "[1]; [5]", "value": 11300, "unit": "µg/mL"}, {"measurement": "solubility", "setting": "[1]; [6]", "value": 12400, "unit": "µg/mL"}, {"measurement": "solubility", "setting": "[1]; [7]", "value": 13400, "unit": "µg/mL"}, {"measurement": "solubility", "setting": "[1]; [8]", "value": 2100, "unit": "µg/mL"}, {"measurement": "solubility", "setting": "[1]; [9]", "value": 1500, "unit": "µg/mL"}]}]}
